Laboratory results published in patent US20250082705A1, “COMPOSITION FOR IMPROVING, PREVENTING, OR TREATING SLEEP DISORDERS COMPRISING DENDROPANAX MORBIFERA EXTRACTS” (JEJU PANATEK Co., Ltd., priority 2023, published 2025).

Columns and labels:
[1] = ABTS radical scavenging assay; type: biochemical; settings: mean ± standard deviation
Experimental: (§1) The antioxidant activity of the Dendropanax morbifera ethanol extract was analyzed using an ABTS (2,2′-azino-bis (3-ethylbenzothiazoline-6-sulfonic acid)) assay and a DPPH (1,1-diphenyl-2-picrylhydrazyl) assay. As the experimental result, the concentration of a sample that appeared when the absorbance decreased by 50% was represented as IC50, and ascorbic acid was used as a standard material.
Specifically, in the ABTS method, the ABTS solution was mixed with the extract at a ratio of 20:1 and the absorbance was measured. Light was blocked at room temperature and the results were confirmed at 414 nm after 60 minutes of reaction. The ABTS solution was obtained by dissolving 7.4 mM ABTS and 2.6 mM potassium persulfate in distilled water and stored at 4° C. for 1 day, and adjusted so that a blank value was 1.4 to 1.5.

[2] = DPPH radical scavenging assay; type: biochemical; settings: mean ± standard deviation
Experimental: as §1
In the DPPH method, the absorbance was measured by mixing a
DPPH·methanol solution with the sample in a 1:1 ratio. Light was blocked at room temperature and the results were confirmed at 520 nm after 5 minutes of reaction. The DPPH·methanol solution was adjusted so that the blank value was 1.7 to 1.8.

O=C1O[C@H]([C@@H](O)CO)C(O)=C1O [Ascorbic acid]
ABTS IC50 [1]: 71 ± 2 µg/mL | DPPH IC50 [2]: 25 ± 1 µg/mL
